The record followed here is patent US9157053B1, “Laundry washing machine deodorizer” (priority 2009, dated 2015).

The subject of experiment [1] is biofilm. Briefly: standardized test procedure for objectionable odors (whiff test, Pass/Fail) in a High Efficiency laundry washing machine. To be noted: one ounce of composition per load, 14 days idle, TROMM WM2688WM HE washer, Tide Liquid HE detergent, 2.5 cu ft cotton laundry. From the text:
The residue is a matrix of soap, detergent, cotton or wool fibers, and any other organic matter that was introduced by the dirty laundry. This provides a wide array of substances that can support biological growth. The exact mixture is an uncontrolled variable but it considered to be bounded by the use of one machine in one location. Experimental control also involves a standardized volume of the laundry load and the exclusive use of cotton items in the laundry washed. The detergent portion of the matrix was standardized by using only TIDE® Liquid HE Detergent.
A standardized test procedure was developed for a High Efficiency (HE) laundry washing machine. […]
The test procedure also involved a second growth period after the wash cycle where the damp laundry is allowed to sit idle in the laundry washing machine with the door closed. […] Given the above assumptions, it was reasonable to assume that the performance of the composition would be effectively quantified Personal experience with odor problem:
Experimentation with idle periods ranging from twenty four hours to three weeks verified that the intensity of the odor problem was a function of the biofilm growth in the machine during the idle period of the washing schedule. […] Therefore, it was determined that the criteria for effectiveness would be focused on the first load of the week. […]

The test system of experiment [2] is odor-causing biological growth (mold, mildew) in the machine. Nature of the experiment: early odor-control trials in the TROMM laundry washer, before the standardized procedure. Conditions: TROMM WM2688WM washer; Example 1: one ounce per load, 2.5 cu ft laundry, warm water. From the text: A TROMM Model # WM2688WM laundry washer made by LG Electronics Inc. was purchased. After a few months the odor problem was discovered. […] Applicant started to investigate why a new, expensive washer had this kind of problem. […] These are organic based materials. They provide a growth medium for mold, mildew and other biological growth. The odor is generated by this biofilm. The biofilm returns between each of the treatments.
Since the primary odor was thought to come from mildew, a well known material, 20 MULE TEAM BORAX® detergent was used as a detergent. The boron contained in the detergent is a toxic material that controls mold and fungus. […] The commercially available detergent contained a small amount of boron along with various other chemicals necessary for laundry cleaning.
One ounce of the borax was added to the machine for each load.
The laundry volume was standardized at a full basket of 2.5 Cu Ft.
All wash cycles were run with warm water.

“sodium borate pentahydrate [5 mol concentration borax]”: the “first load odor control / first load performance” value in experiment [1] is given as “did increase the control of first load odors, but it was still erratic”.
Turning to `O=C([O-])O.[Na+]` [baking soda], in experiment [2], the odor control entry is reported as “did not work well”.
